Experimental data as given in patent US20230381204A1, “COMPOSITIONS FOR TREATING INFLAMMATIONS, WOUNDS AND SCARRING” (priority 2020, published 2023).

Key:
IL-1α = test: LPS-induced IL-1α secretion in RAW 264.7 cells (ELISA); type: cell-based; settings: Mus musculus, read-out: IL-1 alpha inhibition
Protocol: (§1) RAW 264.7 cells ([…] ¢/ml, by counting) were seeded in 96 well plates containing 170 μl/well of complete growth medium (See formulation section). The cells were incubated at 37° C. with 5% CO2 for 24 hr. The medium was aspirated and replaced by LPS-containing medium (25 ng/ml) with or without the Tested Samples at two different concentrations (similarly to what is presented in Table 1). In addition, Naïve cells (Group 1), vehicle treated cells (Group 2), Stimulated Control (Group 3) and Stimulated Vehicle Control (Group 4) served as negative controls. SDS (Group 5) and Dexamethasone (Group 6) served as positive controls for viability and anti-inflammatory assays, respectively. A Blank control group was included in the assay (Group 11), and subtracted from all treatments.
(§2) The cells were incubated at 37° C. with 5% CO2 for 24 hr. At the end of incubation, the viability of the cells was measured using the MTT assay, according to SOP. […] IL-1α, TNFα and IL-6 levels were measured by ELISA, according to manufacturer instructions. […]
(§3) The anti-inflammatory activity of the Tested Samples was examined in the LPS-induced inflammatory model (RAW 264.7 cells) and the secretion of three cytokines was monitored. Then, the compatibility and possible synergistic action of selected combination was determined. IL-1α, TNFα and IL-6 levels were measured by ELISA, according to manufacturer instructions.

TNFα = test: LPS-induced TNFα secretion in RAW 264.7 cells (ELISA); type: cell-based, Mouse
Protocol: RAW 264.7 cells (170×105 ¢/ml, by counting) were seeded in 96 well plates containing 170 μl/well of complete growth medium (See formulation section). The cells were incubated at 37° C. with 5% CO2 for 24 hr. The medium was aspirated and replaced by LPS-containing medium (25 ng/ml) with or without the Tested Samples at two different concentrations (similarly to what is presented in Table 1). In addition, Naïve cells (Group 1), vehicle treated cells (Group 2), Stimulated Control (Group 3) and Stimulated Vehicle Control (Group 4) served as negative controls. SDS (Group 5) and Dexamethasone (Group 6) served as positive controls for viability and anti-inflammatory assays, respectively. A Blank control group was included in the assay (Group 11), and subtracted from all treatments.
The cells were incubated at 37° C. with 5% CO2 for 24 hr. At the end of incubation, the viability of the cells was measured using the MTT assay, according to SOP. Viability greater than 85% was considered nontoxic. In addition, the spent media from all test groups was collected under standardized conditions and centrifuged at 250×g for 5 min to remove particulates. Clear supernatants were frozen at −70° C. until cytokine analysis. IL-1α, TNFα and IL-6 levels were measured by ELISA, according to manufacturer instructions.
Cell culturing and treatments was performed under sterile conditions. Experiments were carried out in a certified RAW 264.7 cells (Mouse monocyte macrophage) obtained originally from ECACC. The cells were incubated at 37° C. with 5% CO2 for 24 hr. Then, the medium
was aspirated and replaced by LPS-containing medium (25 ng/ml) with or without the Tested Samples. In addition, Naïve cells, vehicle treated cells, Stimulated Control and Stimulated Vehicle Control served as negative controls. Dexamethasone served as positive controls for anti-inflammatory assays. Blank control group was included in the assay, and subtracted from all treatments.
The anti-inflammatory activity of the Tested Samples was examined in the LPS-induced inflammatory model (RAW 264.7 cells) and the secretion of three cytokines was monitored. […] IL-1α, TNFα and IL-6 levels were measured by ELISA, according to manufacturer instructions.
Experiments were carried out in a certified RAW 264.7 cells (Mouse monocyte macrophage) obtained originally from ECACC. RAW 264.7 cells (approx. 2×105 ¢/ml, by counting) were seeded in 96 well plates containing 170 μl/well of complete growth medium. The cells were incubated at 37° C. with 5% CO2 for 24. Next, the medium was aspirated and replaced by LPS-containing medium (25 ng/ml) with or without the Tested Samples.
In addition, Naïve cells, vehicle treated cells, Stimulated Control and Stimulated Vehicle Control served as controls (FIG. 4A). […]

IL-6 = test: LPS-induced IL-6 secretion in RAW 264.7 cells (ELISA); type: cell-based; settings: Mus musculus, RAW264.7, LPS 25 ng/ml, 24 hr
Protocol: as §1, §2, §3

RAW 264.7 cells = test: MTT cell viability (toxicity evaluation) in RAW 264.7 cells; type: cell-based, Mouse; settings: positive control for viability, 0.1%; 24 hr
Protocol: The assay was performed on 15 Tested Samples in triplicates (the Tested Samples are labeled 1-11 and 13-16). RAW 264.7 cells (1.7×10^5 ¢/ml, by counting) were seeded in 96 well plates containing […] of complete growth medium (see formulation section). The cells were incubated at 37° C. with 5% CO2 for 24 hr. The medium was aspirated and replaced by LPS-containing medium (25 ng/ml) with or without the Tested Samples at four different concentrations, as described below. In addition, Naive cells (Group 1), vehicle treated cells (Group 2), Stimulated Control (Group 3) and Stimulated Vehicle Control (Group 4) served as negative controls. SDS (Group 5) and Dexamethasone (Group 6) served as positive controls for viability and anti-inflammatory assays, respectively. The blank control group was included in the assay (Group 11), and subtracted from all treatments. The cells were incubated at 37° C. with 5% CO2 for 24 hr. At the end of incubation, the viability of the cells was measured using the MTT assay. Viability greater than 85% was considered nontoxic.

CCCCCc1cc(O)c(C/C=C(\C)CCC=C(C)C)c(O)c1 [CBG, cannabigerol]
inhibition at 2 µg/mL (IL-1α; RAW264.7, 24 h): 12.9%
inhibition at 2 µg/mL (TNFα; Mus musculus, RAW264.7, 24 h, read-out: TNF alpha inhibition): 26.8%

C=C(C)[C@@H]1CCC(C)=C[C@H]1c1c(O)cc(CCCCC)cc1O [CBD, cannabidiol]
inhibition at 0.1 µg/mL (IL-6; 0.1 μg/ml alone): 8.2%
inhibition at 0.5 µg/mL (IL-6; 0.5 μg/ml alone): 10.6%
inhibition at 0.5 µg/mL (IL-1α; RAW264.7, 0.5 μg/ml alone, LPS 25 ng/ml, 24 hr): 7.6%
inhibition at 0.1 µg/mL (TNFα; Mus musculus, RAW264.7, 0.1 μg/ml alone, LPS 25 ng/ml, 24 hr, read-out: TNF alpha inhibition): 12.3%
inhibition at 0.5 µg/mL (TNFα; Mus musculus, RAW264.7, 0.5 μg/ml alone, LPS 25 ng/ml, 24 hr, read-out: TNF alpha inhibition): 22.6%

NC(=O)NC1NC(=O)NC1=O (stereo not drawn) [allantoin]
TNF alpha inhibition (TNFα; 2 μg/ml alone, LPS 25 ng/ml): no activity

CCCCCCCCCCCCOS(=O)(=O)[O-].[Na+] [SDS]
cell viability (MTT) (RAW 264.7 cells): toxic and caused a significant reduction in cell viability
